Our source for the melting point values is a melting point compilation (Tetko et al.; mined from patent text by program, amines drawn as free bases though some values may be those of a salt).

A word on the melting point: it is the temperature of the solid-liquid transition.

Molecule `CCOCc1nc2c(N)nc3cc(-c4ccc(-c5ccc6c(c5)nc(N)c5nc(COCC)n(CC(C)(C)O)c56)cc4)ccc3c2n1CC(C)(C)O` returned a melting point of 325 to 328 °C. Turning to `CC(=O)c1ccc(Nc2cccc(-c3ccccn3)c2)c(N)c1`, the melting point fell in the range of 145 to 146 °C. Under `CCOC(=O)C1=C(C=NOc2ccc([N+](=O)[O-])cc2[N+](=O)[O-])NC(CF)=C(C(=O)OCC)C1c1cccc([N+](=O)[O-])c1` (stereo not given) stands 150 to 152 °C; under `CCOc1ccc(C(=O)NCCc2ccc(S(=O)(=O)NC(=O)c3ccc(C(=O)NCC(=O)O)nc3)cc2)cc1OCC`, more than 230 °C. Under `NC(=O)c1c(N2CCN(Cc3ccccc3)CC2)nn2c(-c3ccncc3)ccnc12` stands 205 to 206 °C; under `CNC(=O)C1CCNc2ccccc21` (stereo not given), 107 °C. In turn, `CC(Oc1cc(C(F)(F)F)cc(C(F)(F)F)c1)C(N)=O` (stereo not given) registered a melting point of 84 to 85 °C.

`C#CCN1C(=O)C2CC3CC(C2)CC1C3` registered a melting point of 168 to 170 °C. Under `COc1ccccc1CN[C@H]1CCCN(CC(=O)O)[C@H]1c1ccccc1` (relative stereo) stands 58 °C. As for `CN(c1ccc(C(C(F)(F)Cl)C(F)(F)Cl)cc1)S(C)(=O)=O`, the melting point is 140 to 142 °C. Under `COC1(C(=O)Cc2ccc(-c3ccc(O)cc3)cc2)C=CC(Cl)=CC1N` (stereo not given) stands 165 to 168 °C; under `CC1N=C(c2cccnc2)NC1=O` (stereo not given), 238 to 241 °C; under `O=C(NOC1CCCCO1)c1cnc(N2CCN(S(=O)(=O)c3ccc4ccccc4c3)CC2)nc1` (stereo not given), 198 °C.

`O=[N+]([O-])c1cc(Cl)cc2c(Cl)ccnc12`: the melting point is 149 to 164 °C. Under `NC(=O)CCCCCCBr` stands 84 °C; under `COc1cc2c(c(N)c1OC)C(=O)C(=Cc1cc(C)c(O)c(C)c1)C2`, 238 to 240 °C; under `CN(CCN1CCC(=C(c2ccccc2)c2ccccc2)CC1)c1ncccn1`, 98 to 100 °C. Turning to `COCOc1cc(Cl)ccc1-c1cc(-c2cccc(NC(=O)Cn3ccnc3)c2)c(C#N)c(NC(=O)c2ccco2)n1`, the melting point was in the range of 157 to 160 °C. Under `CC(C)c1cccc(C(C)C)c1NC(=O)N(Cc1ccccc1)CC1(c2ccccc2)CCCC1` stands 124 to 127 °C. Under `CC(=O)OCCc1cc2c(s1)S(=O)(=O)CCc1cc(=O)n(-c3ccc(Cl)cc3)nc1-2` stands 137 to 140 °C.

`CCCCCCCC(=O)c1ccc(CCI)cc1`: the melting point was 36.5 °C. Turning to `O=C1CC(c2cccnc2)=NN1c1ccc(O)cc1`, the melting point is more than 250 °C. Under `CC(C)(c1cc(F)ccc1O)c1cc(Cl)ccc1O` stands 125 °C. As for `CCCCC=NNC1=NCCc2ccccc21`, the figure is 147 to 148 °C; as for `O=S(=O)(Nc1cc(O)ccc1Oc1ccccc1)C(F)(F)F`, 97 to 99 °C; as for `O=c1c2ccccc2oc2cc(OCC3CO3)cc(O)c12` (stereo not given), 197 °C. For the molecule `CC(=O)Nc1cnn2c(C)nc3ccccc3c12`, the melting point is 258 to 260 °C.

In turn, `O=C(O)c1cccc(Nc2nc(Oc3ccccc3)nc(Oc3ccccc3Cl)n2)c1` registered a melting point of 250 to 252 °C. On to `CS(=O)(=O)c1ccc(OCCO)cc1`, for which the melting point was 89 to 90 °C. As for `COc1c(C(=O)Nc2ccc(OCC(C)(C)C)c(C#N)c2)cnn1-c1ccc(F)cc1`, the figure is 120 to 123 °C; as for `C#CCC1(O)CCCCC1`, 53 to 54 °C. Under `CN(C)CCCN(C)C(=O)C(Cc1ccccc1)NC(=O)c1cc2cc(Cl)ccc2[nH]1` (stereo not given) stands 187 to 190 °C.

`Clc1ccc(-c2n[nH]c(SC3CCNCC3)c2-c2ccncc2)cc1`: the melting point turned out to be 211 °C. Under `COc1ccc2c(c1)c(-c1cc3nccnc3[nH]1)cn2CCCN` stands 95 to 100 °C. For `CCC(=O)CCC(=O)c1ccc(F)cc1`, the melting point lay in the range of 56 to 57 °C. In turn, `COc1ccc2c(c1)C=Cn1c(nnc1OC)C2` came in with a melting point of 185 to 186 °C. For `CS(=O)(=O)c1ccc2ccn(C3CCN(CCc4ccc(F)cc4)CC3)c2c1`, the melting point is 133 to 135 °C. `O=c1[nH][nH]c(=O)c2c(O)c3cc([N+](=O)[O-])ccc3nc12`: the melting point is 264 °C.

The molecule `CC1(S(=O)(=O)N2C[C@@H](Cl)C[C@@H]2CCl)C=CC=CC1` (stereo not given in full) yielded a melting point of 103 to 105 °C.

Consider `O=C(O)c1ccc2c(c1)ncn2-c1cc(Cl)ccc1O`, for which the melting point fell in the range of 308 to 310 °C. For `O=C(O)c1ccc(-c2ncn(-c3ccc(C(F)(F)C(F)(F)C(F)(F)F)cc3)n2)cc1`, the melting point came out at 225 °C.

`COc1ccc(CCNc2nc(Cl)c3nc(-c4ccco4)oc3n2)cc1`: the melting point lay within 170 to 171 °C. As for `CN(Cc1cccc2c1CN(C1CCC(=O)NC1=O)C2=O)C(=O)NC1CCCCC1` (stereo not given), the figure is 219 to 221 °C. As for `CCCc1nc2ccnn2c(O)c1Cc1ccc(-c2ccccc2C(N)=O)cc1`, the figure is 264 °C; as for `Cc1cccc(NC(=N)N(C)C)c1-c1ccccc1`, 181 to 182 °C. `O=C(CCCCCCCCCCN1CCN(c2ccccc2)CC1)Nc1ccc(O)cc1` displayed a melting point of 160 to 162 °C. As for `CN(C)C(=O)N1CCc2ccc(S(N)(=O)=O)cc2CC1`, the figure is 192 to 193 °C; as for `CC(C)(C)c1cc(CCc2cc(C=O)cc(CCc3cc(C(C)(C)C)cc(C(C)(C)C)c3)c2)cc(C(C)(C)C)c1`, 74 to 75 °C. Under `CN1CCN(Cc2ccc(C(=O)O)cc2)CC1` stands 310 to 312 °C; under `O=C1c2ccccc2C(=O)N1CCCCN(CCCCN1C(=O)c2ccccc2C1=O)CCOc1cccc2c1SCCC2`, 66 °C. Under `CCOC1CC(O)C(=O)N1S(=O)(=O)c1ccccc1` (stereo not given) stands 108 to 116 °C.

`Nc1ccc(-c2cc(OCC(=O)N3CCOCC3)c3c(C(F)(F)F)cccc3n2)cc1`: the melting point is 174 °C. Under `CCCCS(=O)(=O)N(CCN(CC)CC)c1ccc(C(Cl)=C(c2ccccc2)c2ccccc2)cc1` stands 65 to 70 °C. Under `Cn1ccnc1-c1ccc(OCC(O)CNCCOc2ccc(O)c(C(N)=O)c2)cc1` (stereo not given) stands 108 to 112 °C; under `CCC(O)(c1ccccc1)c1cc(C)ccc1C` (stereo not given), 38 to 39 °C; under `CCOC(=O)c1c([N+](=O)[O-])c(-c2cccc([N+](=O)[O-])c2)[nH]c(=O)c1C(=O)OCC`, 188 to 190 °C. Under `COc1cc2c(cc1Nc1ncc(Cl)c(Nc3ccccc3S(=O)(=O)C(C)C)n1)CCN(CC(=O)N1CCCC1)CC2` stands 88 to 105 °C; under `CC(C)C(=O)N[C@H]1C[C@H](C(=O)O)Nc2cc(Cl)cc(Cl)c21` (relative stereo), 197 to 198 °C. `CCN(c1ccc(C)c2cc(-c3ncc(CN4CCN(C(C)=O)CC4)s3)[nH]c12)S(=O)(=O)c1cccs1`: the melting point lay in the range of 157 to 158 °C. Under `CCCCn1c(=O)n(CC=C(C)C)c(=O)c2c1ncn2S(=O)(=O)c1ccc(OC)c(OC)c1` stands 92 to 95 °C; under `O=C1Cc2c(ccc3ccccc23)C(c2ccccc2F)N1` (stereo not given), 259 to 261 °C.

Take `Cc1nc2c(O[C@@H]3c4ccccc4C[C@H]3O)cc(C(=O)O)cn2c1C` (relative stereo): the melting point fell in the range of 229 to 231 °C.

For `CC(=O)N(O)C(C)c1cc2ccccc2o1` (stereo not given), the melting point is 130 to 132 °C. Under `N#Cc1cccnc1N1CCN(CC(=O)Nc2cccc([N+](=O)[O-])c2)CC1` stands 143 to 145 °C. As for `COc1cc2c(Nc3ccc(Cl)cc3F)ncnc2cc1OCCNC1CCCC1`, the figure is 171 to 173 °C; as for `CC(C)OC(=O)c1cn(Cc2c(F)cccc2F)c2nc(-c3ccc(N)cc3)c(CN(C)Cc3ccccc3)n2c1=O`, 168 to 170 °C; as for `CCCCc1nc(I)c(C=O)n1Cc1ccc(C(=O)OC)c2ccccc12`, 178 to 179 °C. The molecule `CN(C)c1ccc(S(=O)(=O)N2CCCCC2=O)cc1` showed a melting point of 165 to 170 °C. Turning to `Cc1cc(OCc2ccccc2)cc2nc(OC(C)C)oc(=O)c12`, the melting point was 137 to 138 °C. Under `COCCOCC(=O)N1CCC(Oc2cc3ncnc(Nc4cccc(Cl)c4F)c3cc2OC)CC1` stands 110 to 111 °C. As for `O=C(Cc1ccc2c(c1)CCC(NS(=O)(=O)c1cccs1)C2)Nc1ccc(C(=O)O)cc1` (stereo not given), the figure is 250 to 252 °C.

As to `Cc1ccc(C(=O)C2=C(O)C(=O)N(c3ccc(C)nn3)C2c2ccc(OC(C)C)cc2)cc1` (stereo not given), the melting point is 268 to 272 °C.

For `CCCCCCCCCCCCCCCC(=O)OCC(COC(=O)CCCCCCCCCCCCCCC)OC(=O)C1C=CC=CC1(O)C(C)=O` (stereo not given), the melting point lay within 43 to 44 °C. As for `NCc1ccc(-c2cnc(N3CCN(C4CC4)CC3)nc2)cc1`, the figure is 150 to 152 °C; as for `CCCNC(=O)C(C)NC(=O)C(NC(=O)OCc1ccccc1)C(Cc1ccccc1)C(=O)O` (stereo not given), 169 to 171 °C. In turn, `CCCCCCCCCC(=O)Oc1ccc(N(CC(=O)O)CC(=O)O)cc1OC(=O)CCCCCCCCC` displayed a melting point of 131 to 133 °C.

Regarding `CC1(C)CCC(C)(C)c2cc(C(O)C(=O)Nc3ccc(C(=O)O)cc3)ccc21` (stereo not given), the melting point lay in the range of 220 to 221 °C. As for `COc1cc(OC)cc(N2CCN(C(=O)Nc3cc4ccccc4cc3OC)CC2)c1`, the figure is 191 to 193 °C; as for `O=C(O)c1cc(=O)c2cc(O)c(=O)ccc2[nH]1`, 258 to 260 °C; as for `O=c1ccc2ccc3ccc(Br)cc3c(=O)c2[nH]1`, 268 to 269 °C. The molecule `C(=C\c1nc(COc2ccc(CCCn3ncnn3)cc2)co1)/c1ccccc1` registered a melting point of 97 to 98 °C.

Consider `CN(c1cccc2cc(-c3nc(CCl)cs3)[nH]c12)S(=O)(=O)c1cccs1`, for which the melting point fell in the range of 153 to 154 °C.

For `OCc1nc2n(n1)-c1cccnc1N(c1ccc(Cl)cc1)C2`, the melting point lay in the range of 240 to 245 °C. Under `COC(SC)C(=O)c1[nH]c2cc(Br)c(Cl)cc2c1-c1ccccc1` (stereo not given) stands 145 to 147 °C. Under `COC(=O)CC1=CCN(C)c2ccc(Cl)cc21` stands 99 to 101 °C.
